# How the values were obtained:
# [1] = test system: T-Rex 293 cells lacking increased expression of estrogen receptor alpha protein; test: Cellular growth inhibition assay, T-Rex 293 cells, (−) doxycycline; assay type: cell-based; details: T-REx-293, 72 h, T-Rex 293 cells without doxycycline, 72 hours, CellTiter-Glo 2.0; read-out: (−) Dox TRex ERa (GI50)
# Method in brief: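 Viability read-out was CellTiter-Glo 2.0 luminescence after 72 h compound exposure, normalized to zero luminescence and fitted by four-parameter regression to give GI50. Cells were an ERα-inducible T-Rex 293 clone cultured with or without 3 ng/mL doxycycline in charcoal-stripped, phenol red-free medium.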
# [2] = test system: MCF7 cells (ATCC #HTB-22); test: Cellular growth inhibition assay, MCF7 cells purchased from ATCC; assay type: cell-based; details: Homo sapiens, MCF7, 144 h, Table 8-A; MCF7 cells purchased from ATCC; six days; CellTiter-Glo; read-out: GI50
# Method in brief: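 MCF7 cells in RPMI 1640 with 10% FBS and 0.2 U/ml insulin, seeded at 1,500 cells/well (ATCC) or 225 cells/well (ECACC). Compounds added 24 h later, then 6 days at 37° C. Viability by CellTiter-Glo 2.0 luminescence. GI50 from four-parameter fit.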
SMILES,GI50 [1] [nM],GI50 [2] [nM]
"CCN(CCCCCCCCNC(=O)C[C@@H]1N=C(c2ccc(Cl)cc2)c2c(sc(C)c2C)-n2c(C)nnc21)CCOc1ccc(C(=O)c2c(-c3ccc(O)cc3)sc3cc(O)ccc23)cc1 [I-2, (S)-2-(4-(4-chlorophenyl)-2,3,9-trimethyl-6H-thieno[3,2-f][1,2,4]triazolo[4,3-a][1,4]diazepin-6-yl)-N-(8-(ethyl(2-(4-(6-hydroxy-2-(4-hydroxyphenyl)benzo[b]thiophene-3-carbonyl)phenoxy)ethyl)amino)octyl)acetamide]",50 to 500,50 to 500
"CCN(CCOCCOCCNC(=O)C[C@@H]1N=C(c2ccc(Cl)cc2)c2c(sc(C)c2C)-n2c(C)nnc21)CCOc1ccc(C(=O)c2c(-c3ccc(O)cc3)sc3cc(O)ccc23)cc1 [I-3, (S)-2-(4-(4-chlorophenyl)-2,3,9-trimethyl-6H-thieno[3,2-f][1,2,4]triazolo[4,3-a][1,4]diazepin-6-yl)-N-(2-(2-(2-(ethyl(2-(4-(6-hydroxy-2-(4-hydroxyphenyl)benzo[b]thiophene-3-carbonyl)phenoxy)ethyl)amino)ethoxy)ethoxy)ethyl) acetamide]",500 to 2500,50 to 500

# — US12558428B2, “Heterobifunctional compounds and their use in treating disease” (Halda Therapeutics OpCo, Inc., priority 2024, dated 2026)
